# Measurements from US8486943B2, “Tetrahydrocyclopenta[b]indole androgen receptor modulators” (Eli Lilly and Company, priority 2008, dated 2013).
# Where two headings read alike, the source gives them in different places.
# Experiments:
# [1] = target: T1, human AR (androgen receptor) (Homo sapiens, UniProt P10275); test: Steroid hormone nuclear receptor binding assay (AR binding)
# T1 construct: expressed in transfected cells; host or cells: HEK293 cells (lysate, '293-AR lysate')
# T1 sequence (P10275 1-920): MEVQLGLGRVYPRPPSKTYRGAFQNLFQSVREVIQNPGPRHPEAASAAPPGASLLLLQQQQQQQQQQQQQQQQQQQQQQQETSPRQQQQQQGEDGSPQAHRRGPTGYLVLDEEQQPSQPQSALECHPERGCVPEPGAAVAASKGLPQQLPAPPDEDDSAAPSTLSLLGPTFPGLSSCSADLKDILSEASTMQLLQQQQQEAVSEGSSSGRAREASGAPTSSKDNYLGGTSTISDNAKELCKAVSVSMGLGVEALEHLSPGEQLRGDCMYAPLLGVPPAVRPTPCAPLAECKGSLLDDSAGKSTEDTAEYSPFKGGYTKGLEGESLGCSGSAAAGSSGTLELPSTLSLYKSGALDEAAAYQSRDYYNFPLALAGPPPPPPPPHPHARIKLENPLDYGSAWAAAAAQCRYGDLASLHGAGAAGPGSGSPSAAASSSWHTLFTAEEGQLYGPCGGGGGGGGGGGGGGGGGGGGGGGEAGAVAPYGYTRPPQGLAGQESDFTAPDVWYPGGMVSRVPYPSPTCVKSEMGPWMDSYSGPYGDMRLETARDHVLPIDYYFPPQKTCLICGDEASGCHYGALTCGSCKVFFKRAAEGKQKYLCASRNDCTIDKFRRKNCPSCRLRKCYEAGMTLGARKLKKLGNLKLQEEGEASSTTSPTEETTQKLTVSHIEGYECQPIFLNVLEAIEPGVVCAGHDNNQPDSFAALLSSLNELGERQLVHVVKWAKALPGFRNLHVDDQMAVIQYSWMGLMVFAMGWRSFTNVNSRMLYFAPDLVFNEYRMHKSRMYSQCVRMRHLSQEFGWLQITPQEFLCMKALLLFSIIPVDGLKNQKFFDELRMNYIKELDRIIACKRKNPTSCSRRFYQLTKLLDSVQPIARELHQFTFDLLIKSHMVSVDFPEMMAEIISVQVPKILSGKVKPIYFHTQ
# Protocol: Cell lysates from human embryonic kidney HEK293 cells overexpressing human MR (mineralocorticoid receptor), GR (glucocorticoid receptor), AR (androgen receptor), or PR (progesterone receptor) are used for receptor-ligand competition binding assays to determine Ki values. Typical procedures are provided below
# Briefly, steroid receptor competition binding assays are run in a buffer containing 20 mM HEPES buffer (pH=7.6), 0.2 mM EDTA, 75 mM NaCl, 1.5 mM MgCl2, 20% glycerol, 20 mM sodium molybdate, 0.2 mM DTT (dithiothreitol), 20 μg/mL aprotinin and 20 μg/mL leupeptin (assay buffer). […] Assays are typically run in 96-well format. Competing test compounds are added at various concentrations ranging from about 0.01 nM to 10 μM. Non-specific binding is determined in the presence of 500 nM aldosterone for MR binding, 500 nM dexamethasone for GR binding, or 500 nM methyltrienolone for AR and PR binding. […] Plates are mixed for 8 minutes on an orbital shaker at 4° C. The plates are then centrifuged at 3,000 rpm at 4° C. for 10 minutes. An aliquot of 120 μL of the binding reaction mixture is then transferred to another 96-well plate and 175 μL of Wallac Optiphase Hisafe 3™ scintillation fluid is added to each well. Plates are sealed and shaken vigorously on an orbital shaker. After an incubation of 2 hours, plates are read in a Wallac Microbeta counter.
# The Kd for [^3H]-aldosterone for MR binding, [^3H]-dexamethasone for GR binding, [^3H]-methyltrienolone for AR binding, or [^3H]-methyltrienolone for PR binding, is determined by saturation binding. The IC50 values for compounds are converted to Ki using the Cheng-Prusoff equation.
# [2] = target: T2, human androgen receptor (AR) (Homo sapiens, UniProt P10275); test: C2C12 AR/ARE reporter assay; assay type: cell-based
# T2 construct: expressed in transfected cells; host or cells: mouse myoblast C2C12 cells, transient co-transfection with Fugene
# T2 sequence (P10275 1-920): T1 sequence (P10275 1-920)
# Protocol: As an indicator of agonist activity in muscle tissue, the C2C12 AR/ARE reporter assay is performed. Briefly, mouse myoblast C2C12 cells are co-transfected using Fugene™ reagent. A reporter plasmid containing a GRE/ARE (glucocorticoid response element/androgen response element) and TK promoter upstream of the luciferase reporter cDNA, is transfected with a plasmid constitutively expressing human androgen receptor (AR) using viral CMV promoter. Cells are transfected in T150 cm^2 flasks in DMEM media with 4% charcoal stripped Fetal Bovine Serum (FBS). After a 5 hour incubation, transfected cells are trypsinized, plated in 96 well dishes in DMEM media containing 4% charcoal-stripped FBS, incubated for 2 h and then exposed to various concentrations of test compounds ranging from about 0.01 nM to 10 μM. After 48 h of incubations with compounds, cells are lysed and luciferase activity is determined by standard techniques. Data is fit to a 4 parameter-fit logistics to determine EC50 values. The % efficacy is determined versus maximum stimulation obtained with 10 nM methyltrienolone.
# [3] = test system: castrated (GDX) male Sprague Dawley rats; test: Model of Efficacy and Selectivity (castrated rats, tissue wet weights); assay type: in vivo, rat; details: eight week treatment; for mean LA wet weight / mean bulbocavernous wet weight / mean prostate wet weight: oral daily
# Protocol: Male Sprague Dawley rats (24 weeks old) are castrated (gonadectomized or “GDX”) according to approved procedures and allowed to waste for eight weeks. Age-matched sham-operated […] are also prepared Animals are housed in a temperature-controlled room (24° C.) with a reversed 12 hour light/dark cycle and water and food are available ad libitum.
# Animals are randomized based on body weight prior to ascribing a test slot. Compounds of the present invention are administered daily by oral gavage to the castrated thirty two week old rats (body weight about 450-500 g) using a conventional vehicle such as 1% sodium carboxymethylcellulose (CMC)+0.25% Tween 80+0.05% AntiFoam® in sterile H2O. Sham operated rats treated with vehicle alone are used as a treatment positive controls whereas castrated rats treated only with vehicle are used as treatment negative control.
# Test animals are dosed daily over a two or eight week timeframe with, for example, 0.3, 1, 2, 3, or 6 mg/kg/day of a compound of the present invention. After the treatment period, animals are sacrificed and the wet weight of the Levator Ani (LA) muscle and the bulbocavernous muscle in each test group may determined and compared to the wet weight of the Levator Ani and the bulbocavernous muscle from the castrated, vehicle-only control group (after weighing, the bulbocavernous muscle may be flash frozen in liquid nitrogen for later use in measuring nitric oxide synthase mRNA, as described below) As an indicator of tissue selective activity, the wet weight of the prostate from test animals may be similarly compared to the wet weight of the prostate from the castrated, vehicle-only group.
# [4] = test system: penile nitric oxide synthase (pnNOS) mRNA; test: pnNOS mRNA by real-time quantitative PCR in bulbocavernosum tissue of treated castrated rats; assay type: in vivo, rat; details: eight weeks
# Protocol: (§1) RNA is isolated from frozen bulbous and corpus cavernosum tissues that are obtained at necropsy from castrated Sprague Dawley rats that are prepared and dosed essentially as described above for the Model of Efficacy and Selectivity. cDNA is synthesized from 2 μg of RNA using a high capacity cDNA kit according to the manufacturer's instructions.
# (§2) Real-time quantitative PCR is then performed according to the fluorescent TaqMan® methodology (Applied Biosystems). Assays-on-Demand™ (Applied Biosystems) probes are used for the rat […] nitric oxide synthase transcript (eNOS) while probes are designed for the rat penile specific isoform of neuronal nitric oxide synthase (pnNOS) using probe designer software (Applied Biosystems). The probes are designed to span a 102 bp region of the rat neuronal nitric oxide synthase gene (pnNOS) that is specific to pnNOS (positions 2865-2967). MGB™ Primer sequences are 5′CCGGAACCCTTGCGTTT 3′ (SEQ ID NO:1) (forward) and 5′[…] 3′ (SEQ ID NO:2) (reverse) and the probe sequence is 5′CCCGTAAAGGGCCT 3′ (SEQ ID NO:3) (FAM NFQ). Assays-on-Demand™ probe sets for the PPIB transcript are used as an internal control. PCR is performed on an ABI Prism 7700 Sequence Detection System at the following thermocycler conditions: 2 min. at 50° C., 10 min. at 95° C., and 40 cycles at 95° C. for 30 s, and 60° C. for 1 min. All reactions are carried out in triplicate.
# [5] = test system: epithelial nitric oxide synthase (eNOS) mRNA; test: eNOS mRNA by real-time quantitative PCR in corpus cavernosum tissue of treated castrated rats; assay type: in vivo, rat; details: 2 mg/kg/day, two weeks
# Protocol: as §1, §2
structure (smiles),measurement,setting,value
"CC(C)OC(=O)N[C@H]1Cc2c(n(C[C@H]3NCC[C@@H]3O)c3ccc(C#N)cc23)C1 [Example 1, [(S)-7-Cyano-4-((2R,3S)-3-hydroxy-pyrrolidin-2-ylmethyl)-1,2,3,4-tetrahydrocyclopenta[b]indol-2-yl]-carbamic acid isopropyl ester]",Ki,[1],~51 nM
same,EC50,[2],~20 nM
"CC(C)OC(=O)N[C@H]1Cc2c(n(C[C@@H]3[C@@H](O)CCN3C)c3ccc(C#N)cc23)C1 [Example 2, [(S)-7-Cyano-4-((2R,3S)-3-hydroxy-1-methyl-pyrrolidin-2-ylmethyl)-1,2,3,4-tetrahydrocyclopenta[b]indol-2-yl]-carbamic acid isopropyl ester]",mean LA wet weight,[3]; 0.3 mg/kg,about 0.137 g
same,mean bulbocavernous wet weight,[3]; 0.3 mg/kg,about 0.476 g
same,mean prostate wet weight,[3]; 0.3 mg/kg,about 72.4 mg
same,mean LA wet weight,[3]; 1.0 mg/kg,about 0.182 g
same,mean bulbocavernous wet weight,[3]; 1.0 mg/kg,about 0.582 g
same,mean prostate wet weight,[3]; 1.0 mg/kg,about 102.8 mg
same,mean LA wet weight,[3]; 3.0 mg/kg,about 0.205 g
same,mean bulbocavernous wet weight,[3]; 3.0 mg/kg,about 0.698 g
same,mean prostate wet weight,[3]; 3.0 mg/kg,about 147.4 mg
same,mean LA wet weight,[3]; 6.0 mg/kg,about 0.264 g
same,mean bulbocavernous wet weight,[3]; 6.0 mg/kg,about 0.955 g
same,mean prostate wet weight,[3]; 6.0 mg/kg,about 271.8 mg
same,Levator ani weight in comparison to the castrated control group,[3]; 0.3-6.0 mg/kg,dose dependent increase
same,bulbocavernous weight in comparison to the castrated control group,[3]; 0.3-6.0 mg/kg,dose dependent increase
same,pnNOS expression,[4]; 0.3 mg/kg,about 97 % of control
same,pnNOS expression,[4]; 1.0 mg/kg,about 93 % of control
same,pnNOS expression,[4]; 3.0 mg/kg,about 153 % of control
same,pnNOS expression,[4]; 6.0 mg/kg,about 248 % of control
same,penile nitric oxide synthase (pnNOS) mRNA,[4]; 0.3-6.0 mg/kg,dose dependent increase
same,Ki,[1],~11 nM
same,eNOS expression,[5],about 159 % of control
same,EC50,[2],~1 nM
"CC(C)OC(=O)N[C@H]1Cc2c(n(Cc3ccccc3O)c3ccc(C#N)cc23)C1 [Example 9, [(S)-7-Cyano-4-(2-hydroxy-benzyl)-1,2,3,4-tetrahydro-cyclopenta[b]indol-2-yl]-carbamic acid isopropyl ester]",Ki,[1],~0.8 nM
same,EC50,[2],~0.3 nM
"CC(C)OC(=O)N[C@H]1Cc2c(n(C[C@@H]3N(C)CC[C@@]3(C)O)c3ccc(C#N)cc23)C1 (relative stereo) [Example 6, [(S)-7-Cyano-4-(trans-3-hydroxy-1-methyl-3-methyl-pyrrolidin-2-ylmethyl)-1,2,3,4-tetrahydro-cyclopenta[b]indol-2-yl]-carbamic acid isopropyl ester]",EC50,"[2]; mouse myoblast C2C12 cells transfected with human AR, no unit printed for these values, read-out: EC50 in the C2C12 AR/ARE reporter assay",~0.3 nM
